# Like-named read-outs stand apart in the source and are kept apart here.
# Assays:
# [1] = system: T. cruzi epimastigotes; assay: In vitro trypanocidal activity on T. cruzi epimastigotes (alamarBlue); format: cell-based, Trypanosoma cruzi; settings: 72 h; for IC50: Trypanosoma cruzi
# Procedure: In a 96-well plate, a serial dilution of the tested compounds was performed in the liver infusion tryptose medium supplemented with 10% heat-inactivated fetal bovine serum. Later, 100 µL of 5 × 10^5 cells/mL of epimastigotes was added to each well. Afterwards, 20 µL of alamarBlue® was added to each well, and the plate was maintained at 26 °C for 72 h.
# (§1) The cytotoxicity effect of the tested compounds was conducted using macrophages of the murine cell line J774.A1 (American Type Culture Collection #TIB-67) as previously described. The cells were maintained in the DMEM medium at 37 °C in a 5% CO2 humidified incubator. All the plates containing alamarBlue® were analyzed using the plate reader EnSpire Multimode Plate Reader® at excitation and emission wavelengths of 570 and 585 nm, respectively (PerkinElmer, ThermoFisher Scientific, Madrid, Spain). The IC50 (concentrations able to inhibit 50% of parasites), IC90 (concentrations able to inhibit 90% of parasites), and CC50 (concentration able to inhibit 50% of murine macrophages) values were determined for each compound by nonlinear regression using the GraphPad Prism 9 software.
# [2] = In vitro leishmanicidal activity on L. amazonensis promastigotes (Alamar Blue); format: cell-based, Leishmania amazonensis; settings: mouse; CC50 J774.A1 macrophages / IC50 L. amazonensis promastigotes; read-out: Selectivity SI (CC50/IC50), promastigotes
# Procedure: (§2) The assay was conducted using the Alamar Blue® method as previously described. […] In 96-well microtiter plates (Corning^TM, Corning, NY, USA), serial dilutions of the citral derivative were first prepared, and later 10^6 parasites/mL were added into each well. Subsequently, 10% Alamar Blue® was added to the entire plate. The plates were incubated for 72 h at 26 °C. The cytotoxicity effect of the tested compounds was conducted using macrophages of the murine cell line J774.A1 (American Type Culture Collection #TIB-67) as previously described. The cells were maintained in the DMEM medium at 37 °C in a 5% CO2 humidified incubator. […] The IC50 (concentrations able to inhibit 50% of parasites), IC90 (concentrations able to inhibit 90% of parasites), and CC50 (concentration able to inhibit 50% of murine macrophages) values were determined for each compound by nonlinear regression using the GraphPad Prism 9 software.
# [3] = system: L. amazonensis promastigotes; assay: as above; format: cell-based, Leishmania amazonensis; settings: 72 h, promastigotes, 72 h, ± SD
# Procedure: as §2
# [4] = Cytotoxicity on murine macrophages; format: cell-based; settings: mouse, ± SD
# Procedure: as §1
# [5] = In vitro leishmanicidal activity on L. amazonensis intracellular amastigotes; format: cell-based, Leishmania amazonensis; settings: mouse; CC50 J774.A1 macrophages / IC50 L. amazonensis amastigotes; read-out: Selectivity SI (CC50/IC50), amastigotes
# [6] = system: L. amazonensis intracellular amastigotes; assay: as above; format: cell-based, Leishmania amazonensis; settings: Leishmania amazonensis; intracellular amastigotes; ± SD
# [7] = system: L. amazonensis promastigotes; assay: Mitochondrial membrane potential (JC-1 staining); format: cell-based, Leishmania amazonensis; settings: IC90, 24 h, JC-1 red/green fluorescence ratio
# Procedure: The effect of compound 9 to modulate cell features was studied in the L. amazonensis parasites using various specific commercial kits. Parasite cells were incubated with the compound at the previously calculated IC90 for 24 h. Subsequently, cells were washed and submitted to different treatments as mentioned by the manufacturer’s instructions. In all the assays, the plate reader EnSpire Multimode Plate Reader® (PerkinElmer, ThermoFisher Scientific, Madrid, Spain) and/or the image base system fluorescence microscope EVOS M5000 (version 1.5.1500.493) were used for fluorescence intensity quantification. […]
# To evaluate the damage caused by the tested compound on mitochondrial function, mitochondrial membrane potential, the adenosine triphosphate (ATP) level, and reactive oxygen species (ROS) were measured as follows: The evaluation of the mitochondrial membrane potential was carried out using the JC-1 assay. JC-1 is a specific stain of the mitochondria which fluorescence emission depends on the mitochondrial membrane potential. In healthy mitochondria, JC-1 agglomerates and emits red fluorescence, while unhealthy ones remain as a monomer and emit green fluorescence. […]
# [8] = system: L. amazonensis; assay: ATP level (CellTiter-Glo luminescence); format: cell-based, Leishmania amazonensis; settings: IC90, 24 h
# Procedure: (§3) The effect of compound 9 to modulate cell features was studied in the L. amazonensis parasites using various specific commercial kits. Parasite cells were incubated with the compound at the previously calculated IC90 for 24 h. Subsequently, cells were washed and submitted to different treatments as mentioned by the manufacturer’s instructions. In all the assays, the plate reader EnSpire Multimode Plate Reader® (PerkinElmer, ThermoFisher Scientific, Madrid, Spain) and/or the image base system fluorescence microscope EVOS M5000 (version 1.5.1500.493) were used for fluorescence intensity quantification. For each protocol, images of representative population cells were obtained using the inverted confocal microscope Leica DMI 4000 B with the Leica Application Suite X 3.5.5.19976 software and Leica HC PL APO 63x/1.40 OIL CS2 Objective (Barcelona, Spain).
# The adenosine triphosphate (ATP) level was measured using the CellTiter-Glo Luminescent Cell Viability Assay (Promega, Madrid, Spain). The mitochondrion in which most cellular oxidations occur is considered the main source of cell ATP, and any damage and/or malfunction of this organelle generate the depletion of ATP levels.
# [9] = system: L. amazonensis; assay: Intracellular ROS (CellROX Deep Red); format: cell-based, Leishmania amazonensis; settings: IC90, 24 h
# Procedure: as §3, with “Parasite” for “The effect of compound 9 to modulate cell features was studied in the L. amazonensis parasites using various specific commercial kits. Parasite”, “Spain). The measure of reactive oxygen species (ROS) was measured after treatment for 24 h using the CellROX® Deep Red fluorescent probe (Invitrogen, Madrid, Spain). The mitochondrion constitute an essential organelle to neutralize the reactive oxygen species; the malfunction of this organelle would generate an imbalance between the antioxidants and the reactive oxygen.” for “Spain).”
# [10] = system: L. amazonensis; assay: Plasma membrane permeability (SYTOX Green); format: cell-based, Leishmania amazonensis; settings: IC90, 24 h
# Procedure: as §3
# SYTOX^TM Green (Life Technologies, Madrid, Spain), a cell-impermeable DNA-binding stain, was used to evaluate membrane permeability and integrity. The assay was conducted as detailed in the manufacture instructions and as previously described.
# [11] = system: L. amazonensis promastigotes; assay: Double stain assay (Hoechst 33342/PI) for programmed cell death; format: cell-based, Leishmania amazonensis; settings: IC90, 24 h
# Procedure: as §3
# To identify the type of cell death occurring in treated Leishmania amazonensis, the Hoechst 33342 and propidium iodide (PI) dyes were employed. […] Post-treatment, three distinct staining patterns could be observed: blue fluorescence indicating cells […]; violet coloration resulting from the merge of blue and red fluorescence, representing late apoptotic cells; and red fluorescence corresponding to dead cells.
# [12] = Leishmania amazonensis, Alamar Blue, read-out: L. amazonensis IC50
# [13] = Leishmania amazonensis, read-out: L. amazonensis Promastigotes IC50
Compound,selectivity ratio [2],CC50 ([4]; J774.A1 macrophage cell line),"IC50 [3, 13]",selectivity ratio [5],IC50 [6],further results
"O=C(Cn1ccnc1[N+](=O)[O-])NCc1ccccc1 [Benznidazole, reference compound]",,,,,,"IC50 [1]: 1.81 µM; IC50 ([1]; alamarBlue, ± SD): 1.81 ± 0.5 µg/mL"
"CC(C)=CCCC(C)=CC=O [Compound 1, 3,7-dimethyl-2,6-octadienal]",6.97,> 300 µM,,,,"IC50 [3, 12]: 10.9 µg/mL; L. amazonensis IC50 ([3]; Alamar Blue, listed as Citral (1)): 8.47 ± 4.59 µg/mL; T. cruzi IC50 ([1]; alamarBlue, ± SD, listed as Citral (1)): 12.90 ± 1.92 µg/mL; IC50 [1]: 12.9 µM; IC50 ([1]; alamarBlue, ± SD): 24.8 µg/mL"
"CC(C)=CCC/C(C)=C/C=NO [Compound 2, citral oxime]",12.6,> 300 µM,40.8 ± 19.4 µM,9.39,56.9 ± 19.1 µM,
"CC(=O)ON=C/C=C(\C)CCC=C(C)C [Compound 3, citral oxime acetate]",,,> 100 µM,,,
"CCCC(=O)ON=C/C=C(\C)CCC=C(C)C [Compound 4, citral oxime butyrate]",,,> 100 µM,,,
"CC(C)=CCC/C(C)=C/C=NOC(=O)c1ccccc1 [Compound 5, citral oxime benzoate]",10.4,> 300 µM,29.3 ± 8.07 µM,,,
"CC(C)=CCC/C(C)=C/C=NOC(=O)c1ccc([N+](=O)[O-])cc1 [Compound 6, citral oxime 4-nitrobenzoate]",9.25,> 300 µM,34.2 ± 14.4 µM,,,
"CC(C)=CCC/C(C)=C/C=NNC(N)=O [Compound 7, citral semicarbazone]",9.29,> 300 µM,43.8 ± 12.1 µM,,,
"CC(C)=CCCC(C)=CC=NNc1ccc([N+](=O)[O-])cc1[N+](=O)[O-] [Compound 9, citral 2,4-dinitrophenylhydrazone]",2.98,,10.6 ± 4.78 µM,1.47,21.4 ± 0.65 µM,CC50 ([4]; murine macrophages J774.A1): 31.6 ± 1.96 µM; Decrease of mitochondrial membrane potential in comparison with untreated cells [7]: 50%; Reduction in ATP production in comparison to the negative controls [8]: 46.35%; Intracellular ROS level (in words) [9]: significant increase in emitted fluorescence; Effect on plasma membrane permeability (in words) [10]: can affect the cell’s membrane permeability; Type of cell death (in words) [11]: induction of mitochondrial-dependent apoptosis
"CCCCCCCCCCCCCCCCOP(=O)([O-])OCC[N+](C)(C)C [Miltefosine, reference compound]",11.2,72.2 ± 8.85 µM,,23.1,3.12 ± 0.3 µM,"IC50 [3, 12]: 2.64 ± 0.09 µg/mL; IC50 ([3]; read-out: L. amazonensis Promastigotes IC50): 2.64 µM; Decrease of mitochondrial membrane potential in comparison with untreated cells [7]: 75%; Reduction in ATP production in comparison to the negative controls [8]: 74.11%; Effect on plasma membrane permeability (in words) [10]: greater degree of damage to membrane permeability compared to compound 9"
